The target of the assay is T1, Ecdysone receptor (Drosophila melanogaster, UniProt P34021).
T1 sequence (P34021 whole entry): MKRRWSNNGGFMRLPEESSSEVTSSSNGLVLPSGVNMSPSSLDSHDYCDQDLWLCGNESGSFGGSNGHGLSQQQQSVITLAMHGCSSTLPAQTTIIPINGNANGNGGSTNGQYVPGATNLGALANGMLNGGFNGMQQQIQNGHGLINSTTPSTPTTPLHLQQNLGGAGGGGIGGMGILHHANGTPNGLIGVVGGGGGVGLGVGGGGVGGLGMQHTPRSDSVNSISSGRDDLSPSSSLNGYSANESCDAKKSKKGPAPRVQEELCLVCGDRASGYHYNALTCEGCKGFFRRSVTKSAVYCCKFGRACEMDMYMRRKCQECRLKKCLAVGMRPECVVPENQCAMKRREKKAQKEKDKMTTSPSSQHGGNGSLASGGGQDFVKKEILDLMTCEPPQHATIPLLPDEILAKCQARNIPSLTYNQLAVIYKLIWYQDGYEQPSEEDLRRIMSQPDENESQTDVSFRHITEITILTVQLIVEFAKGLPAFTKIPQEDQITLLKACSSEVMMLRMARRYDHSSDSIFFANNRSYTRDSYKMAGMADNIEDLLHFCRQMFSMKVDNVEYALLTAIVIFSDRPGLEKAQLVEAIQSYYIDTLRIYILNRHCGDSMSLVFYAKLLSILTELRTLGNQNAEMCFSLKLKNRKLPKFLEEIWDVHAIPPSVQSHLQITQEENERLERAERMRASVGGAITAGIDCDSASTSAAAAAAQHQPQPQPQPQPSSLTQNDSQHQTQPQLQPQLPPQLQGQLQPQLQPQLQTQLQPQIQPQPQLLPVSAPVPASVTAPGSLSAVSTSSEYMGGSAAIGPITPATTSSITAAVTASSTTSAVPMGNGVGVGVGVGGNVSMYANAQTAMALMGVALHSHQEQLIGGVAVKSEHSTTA
The experiment in a line: Binding affinity to ecdysone receptor ligand binding domain in Drosophila melanogaster assessed as number of hydrogen bonds formed.
Broadly, the IC50 is the concentration at which inhibition is half-maximal. For `CC(C)CC[C@@H](O)[C@](C)(O)[C@H]1CC[C@H]2[C@@H]3CC[C@H]4CCCC[C@]4(C)[C@H]3CC[C@]12C`, the IC50 is greater than 245000 nM.
`CC(C)CC[C@@H](O)[C@](C)(O)[C@H]1CC[C@H]2[C@@H]3CC[C@H]4C[C@@H](O)CC[C@]4(C)[C@H]3CC[C@]12C`: the IC50 is 41700 nM.
As for `CC(C)CC[C@@H](O)[C@](C)(O)[C@H]1CC[C@H]2[C@@H]3CC(=O)[C@@H]4C[C@H](O)CC[C@]4(C)[C@H]3CC[C@]12C`, the figure is 89100 nM; as for `CC(C)CC[C@@H](O)[C@](C)(O)[C@H]1CC[C@H]2[C@@H]3C[C@@H](O)[C@H]4C[C@@H](O)CC[C@]4(C)[C@H]3CC[C@]12C`, greater than 245000 nM; as for `CC(C)CC[C@@H](O)[C@](C)(O)[C@H]1CC[C@H]2[C@@H]3CC(=O)[C@@H]4C[C@@H](O)[C@@H](O)C[C@]4(C)[C@H]3CC[C@]12C`, 58.9 nM.
With `CC(C)CC[C@@H](O)[C@](C)(O)[C@H]1CC[C@H]2[C@@H]3CC=C4CCCC[C@]4(C)[C@H]3CC[C@]12C`, the IC50 is greater than 245000 nM.
For the compound `CC(C)CC[C@@H](O)[C@](C)(O)[C@H]1CC[C@H]2[C@@H]3CC(=O)[C@H]4C[C@H](O)CC[C@]4(C)[C@H]3CC[C@]12C`, the IC50 is 794 nM.
As for `CC(C)CC[C@@H](O)[C@](C)(O)[C@H]1CC[C@H]2[C@@H]3C[C@H](O)[C@H]4C[C@@H](O)CC[C@]4(C)[C@H]3CC[C@]12C`, the figure is greater than 245000 nM; as for `CC(C)CC[C@@H](O)[C@](C)(O)[C@H]1CC[C@H]2[C@@H]3CC=C4C[C@@H](O)CC[C@]4(C)[C@H]3CC[C@]12C`, 41700 nM; as for `CC(C)CC[C@@H](O)[C@](C)(O)[C@H]1CC[C@H]2[C@@H]3CC(=O)[C@H]4C[C@@H](O)CC[C@]4(C)[C@H]3CC[C@]12C`, 9550 nM.
With `CC(C)CC[C@@H](O)[C@](C)(O)[C@H]1CC[C@H]2[C@@H]3CC(=O)[C@H]4C[C@@H](O)[C@@H](O)C[C@]4(C)[C@H]3CC[C@]12C` the figure was 14500 nM; with `CC(C)CC[C@H](O)[C@](C)(O)[C@H]1CC[C@H]2[C@@H]3CC(=O)[C@H]4C[C@H](O)[C@H](O)C[C@]4(C)[C@H]3CC[C@]12C`, 38900 nM; with `CC(C)CC[C@@H](O)[C@](C)(O)[C@H]1CC[C@H]2[C@@H]3CC(=O)[C@H]4C[C@H](O)[C@H](O)C[C@]4(C)[C@H]3CC[C@]12C`, 324 nM.
With `CC(C)(O)CC[C@@H](O)[C@](C)(O)[C@H]1CC[C@@]2(O)C3=CC(=O)[C@@H]4C[C@@H](O)[C@@H](O)C[C@]4(C)[C@H]3CC[C@]12C` [20-HYDROXYECDYSONE] the figure was 45.7 nM; with `C[C@@H]1C(=O)O[C@H](C)[C@H]1C[C@@H](O)[C@](C)(O)[C@H]1CC[C@@]2(O)C3=CC(=O)[C@@H]4C[C@@H](O)[C@@H](O)C[C@]4(C)[C@H]3CC[C@]12C` [CYASTERONE], 61.7 nM; with `C[C@H]([C@H](O)CCC(C)(C)O)[C@H]1CC[C@@]2(O)C3=CC(=O)[C@@H]4C[C@@H](O)[C@@H](O)C[C@]4(C)[C@H]3CC[C@]12C` [ECDYSONE], 2570 nM.
For `CC(CO)CC[C@@H](O)[C@](C)(O)[C@H]1CC[C@@]2(O)C3=CC(=O)[C@@H]4C[C@@H](O)[C@@H](O)C[C@]4(C)[C@H]3CC[C@]12C` (some centres undefined) [INOKOSTERONE], the IC50 is 91.2 nM.
Regarding `C[C@H](C[C@@H](O)[C@](C)(O)[C@H]1CC[C@@]2(O)C3=CC(=O)[C@@H]4C[C@@H](O)[C@@H](O)C[C@]4(C)[C@H]3CC[C@]12C)C(C)(C)O` [MAKISTERONE A], the half-inhibitory concentration (IC50) was 112 nM.
As for `CC(C)CC[C@@H](O)[C@](C)(O)[C@H]1CC[C@@]2(O)C3=CC(=O)[C@@H]4C[C@@H](O)[C@@H](O)C[C@]4(C)[C@H]3CC[C@]12C` [PONASTERONE A], the figure is 1.29 nM.
